Columns and labels:
EGFR (human) = EGFR (human) (UniProt P00533); settings: 3t3
EGFR = EGFR (UniProt P00533)
EGFR, sequence (P00533 whole entry, looked up): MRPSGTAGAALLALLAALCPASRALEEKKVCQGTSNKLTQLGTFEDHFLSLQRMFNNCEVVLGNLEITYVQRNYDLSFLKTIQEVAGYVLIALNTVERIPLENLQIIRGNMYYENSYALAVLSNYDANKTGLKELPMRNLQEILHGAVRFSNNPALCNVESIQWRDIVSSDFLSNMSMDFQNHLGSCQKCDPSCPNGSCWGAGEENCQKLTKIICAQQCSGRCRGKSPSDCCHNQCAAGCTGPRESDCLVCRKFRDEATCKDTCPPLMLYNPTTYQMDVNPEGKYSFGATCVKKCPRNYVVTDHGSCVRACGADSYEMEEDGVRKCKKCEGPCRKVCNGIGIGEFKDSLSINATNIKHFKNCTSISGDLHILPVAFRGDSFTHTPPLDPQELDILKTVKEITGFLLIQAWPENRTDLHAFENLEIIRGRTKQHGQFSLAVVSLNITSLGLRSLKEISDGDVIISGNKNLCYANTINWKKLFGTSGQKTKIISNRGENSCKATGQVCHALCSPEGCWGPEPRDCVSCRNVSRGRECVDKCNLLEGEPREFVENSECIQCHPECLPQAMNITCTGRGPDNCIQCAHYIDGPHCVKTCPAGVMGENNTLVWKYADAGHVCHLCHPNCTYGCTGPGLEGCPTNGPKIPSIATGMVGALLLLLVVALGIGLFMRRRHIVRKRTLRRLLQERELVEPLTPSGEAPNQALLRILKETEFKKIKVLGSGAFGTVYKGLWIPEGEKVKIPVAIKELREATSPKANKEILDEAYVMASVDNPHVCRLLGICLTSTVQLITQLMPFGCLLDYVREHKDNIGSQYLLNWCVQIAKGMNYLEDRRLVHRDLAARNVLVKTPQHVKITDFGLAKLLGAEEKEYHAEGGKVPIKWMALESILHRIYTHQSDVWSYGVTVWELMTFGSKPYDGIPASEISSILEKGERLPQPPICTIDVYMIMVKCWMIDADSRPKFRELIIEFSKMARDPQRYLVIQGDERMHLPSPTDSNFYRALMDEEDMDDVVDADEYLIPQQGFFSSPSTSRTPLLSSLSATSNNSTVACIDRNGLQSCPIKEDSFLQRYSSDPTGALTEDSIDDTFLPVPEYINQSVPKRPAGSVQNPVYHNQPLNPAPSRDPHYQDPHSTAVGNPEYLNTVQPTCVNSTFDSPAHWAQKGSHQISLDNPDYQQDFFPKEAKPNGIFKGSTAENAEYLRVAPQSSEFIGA

EGFR (human), sequence (P00533 whole entry, looked up): as above

SMILES	IC50 (EGFR (human)) [µM]	IC50 (EGFR) [µM]
Cc1c(CCC(=O)O)c[nH]c1/C=C1/C(=O)Nc2cc(Br)ccc21	> 50	
Cc1c(CCC(=O)O)c[nH]c1/C=C1/C(=O)Nc2cc(-c3ccccc3)ccc21	30.5	
COc1cccc(-c2ccc3c(c2)NC(=O)/C3=C\c2[nH]cc(CCC(=O)O)c2C)c1	30.6	
COc1ccc2c(c1)NC(=O)/C2=C\c1[nH]cc(CCC(=O)O)c1C	> 50	
Cc1ccc2c(c1)/C(=C\c1[nH]cc(CCC(=O)O)c1C)C(=O)N2	> 50	
Cc1[nH]c(/C=C2/C(=O)Nc3cc(O)ccc32)c(C)c1CCC(=O)O	> 50	
CCOc1cccc(-c2ccc3c(c2)NC(=O)/C3=C\c2[nH]c(C)c(CCC(=O)O)c2C)c1	24.7	
Cc1[nH]c(/C=C2/C(=O)Nc3cc(-c4ccccc4)ccc32)c(C)c1CCCN1CCOCC1	> 50	> 100
Cc1[nH]c(/C=C2/C(=O)Nc3ccc(Br)cc32)c(C)c1CCCN1CCOCC1	44.6	> 100
Cc1c(CCC(=O)O)c[nH]c1/C=C1/C(=O)Nc2ccc(I)cc21	> 50	
Cc1c(CCC(=O)O)c[nH]c1/C=C1/C(=O)Nc2ccccc21	> 50	
COc1cccc(-c2ccc3c(c2)NC(=O)/C3=C\c2[nH]c(C)c(CCCN3CCOCC3)c2C)c1	41.9	> 100
CCOc1cccc(-c2ccc3c(c2)NC(=O)/C3=C\c2[nH]cc(CCC(=O)O)c2C)c1	37.2	
Cc1cccc2c1/C(=C\c1[nH]c(C)c(CCC(=O)O)c1C)C(=O)N2	> 50	
COc1ccc(-c2ccc3c(c2)NC(=O)/C3=C\c2[nH]c(C)c(CCC(=O)O)c2C)cc1	> 50	
COc1ccc(-c2ccc3c(c2)NC(=O)/C3=C\c2[nH]c(C)c(CCCN3CCOCC3)c2C)cc1	> 50	> 100
COc1ccc2c(c1)/C(=C/c1[nH]cc(CCC(=O)O)c1C)C(=O)N2	> 50	
Cc1c(CCC(=O)O)c[nH]c1/C=C1/C(=O)Nc2ccc(Cl)cc21	12	
COc1ccc2c(c1)NC(=O)/C2=C\c1[nH]c(C)c(CCC(=O)O)c1C	> 50	
COc1ccc(-c2ccc3c(c2)NC(=O)/C3=C\c2[nH]cc(CCC(=O)O)c2C)cc1	36.8	
COC(=O)c1ccc2c(c1)/C(=C/c1[nH]cc(CCC(=O)O)c1C)C(=O)N2	> 50	
Cc1[nH]c(/C=C2/C(=O)Nc3ccccc32)c(C)c1CCCN1CCOCC1	> 50	> 100
Cc1[nH]c(/C=C2/C(=O)Nc3cc(-c4ccccc4)ccc32)c(C)c1CCC(=O)O	32.7	
COc1cc2c(cc1OC)/C(=C/c1[nH]cc(CCC(=O)O)c1C)C(=O)N2	> 50	
CCc1ccc2c(c1)/C(=C/c1[nH]cc(CCC(=O)O)c1C)C(=O)N2	> 50	
Cc1c(CCC(=O)O)c[nH]c1/C=C1/C(=O)Nc2cc(Cl)ccc21	> 50	
Cc1c(CCC(=O)O)c[nH]c1/C=C1/C(=O)Nc2ccc(Br)cc21	> 50	
Cc1cccc2c1/C(=C\c1[nH]cc(CCC(=O)O)c1C)C(=O)N2	> 50	
COc1ccccc1-c1ccc2c(c1)NC(=O)/C2=C\c1[nH]c(C)c(CCCN2CCOCC2)c1C	3.9	> 100

Continued, values first:

IC50 (EGFR (human)) [µM]	IC50 (EGFR) [µM]	SMILES
11.2		Cc1[nH]c(/C=C2/C(=O)Nc3ccc(S(=O)(=O)N(C)C)cc32)c(C)c1CCCN(C)C
27.5	> 100	COc1ccc2c(c1)NC(=O)/C2=C\c1[nH]c(C)c(CCCN(C)C)c1C
6.59		Cc1[nH]c(/C=C2/C(=O)Nc3ccc(S(N)(=O)=O)cc32)c(C)c1CCCN(C)C
25.3		Cc1[nH]c(/C=C2/C(=O)Nc3cccc(CCO)c32)c(C)c1CCCN(C)C
8.38		Cc1[nH]c(/C=C2\C(=O)Nc3ccc(S(=O)(=O)NC(C)C)cc32)c(C)c1CCCN(C)C
20.2		Cc1cccc2c1/C(=C\c1[nH]c(C)c(CCCN(C)C)c1C)C(=O)N2
9.57	28.1	COc1cccc(-c2ccc3c(c2)NC(=O)/C3=C\c2[nH]c(C)c(CCCN(C)C)c2C)c1
29.8		Cc1[nH]c(/C=C2/C(=O)Nc3ccc(S(=O)(=O)N4CCOCC4)cc32)c(C)c1CCCN(C)C
25.4	86.6	Cc1[nH]c(/C=C2/C(=O)Nc3cc(Cl)ccc32)c(C)c1CCCN(C)C
3.86	> 100	COc1ccc(-c2ccc3c(c2)NC(=O)/C3=C\c2[nH]c(C)c(CCCN(C)C)c2C)cc1
7.49	> 100	Cc1[nH]c(/C=C2/C(=O)Nc3ccc(Cl)cc32)c(C)c1CCCN(C)C
4.1	> 100	Cc1[nH]c(/C=C2/C(=O)Nc3ccc(Br)cc32)c(C)c1CCCN(C)C
> 50		Cc1[nH]c(/C=C2/C(=O)Nc3ccc(Cl)cc32)c(C)c1CCC(=O)O
25.4		Cc1ccc2c(c1)/C(=C\c1[nH]c(C)c(CCCN(C)C)c1C)C(=O)N2
9.56	22.8	COc1ccccc1-c1ccc2c(c1)NC(=O)/C2=C\c1[nH]c(C)c(CCCN(C)C)c1C
> 50		Cc1ccc2c(c1)/C(=C\c1[nH]c(C)c(CCC(=O)O)c1C)C(=O)N2
> 50		Cc1[nH]c(/C=C2/C(=O)Nc3ccc(Br)cc32)c(C)c1CCC(=O)O
11	> 100	COc1ccc2c(c1)/C(=C/c1[nH]c(C)c(CCCN(C)C)c1C)C(=O)N2
12.6	> 100	Cc1[nH]c(/C=C2/C(=O)Nc3ccccc32)c(C)c1CCCN(C)C
> 50		Cc1[nH]c(/C=C2/C(=O)Nc3ccc(I)cc32)c(C)c1CCC(=O)O
4	> 100	Cc1[nH]c(/C=C2/C(=O)Nc3cc(-c4ccccc4)ccc32)c(C)c1CCCN(C)C
